Reference: ChEMBL document CHEMBL3217477, “Synthesis and biological evaluation of substituted - and -2,3-dihydrofuran naphthoquinones as potent anticandidal agents” (Medchemcomm, 2010)
Converted amounts (≈) assume the structure as drawn.

Legend:
Candida dubliniensis [1] = test: Antifungal activity against Candida dubliniensis assessed as growth inhibition after 24 hrs by microbroth dilution method; type: functional
Candida parapsilosis [2] = test: Antifungal activity against Candida parapsilosis assessed as growth inhibition after 24 hrs by microbroth dilution method; type: functional; conditions: Lodderomyces parapsilosis
Candida albicans [3] = test: Antifungal activity against Candida albicans assessed as growth inhibition after 24 hrs by microbroth dilution method; type: functional
Candida albicans [4] = test: Antifungal activity against Candida albicans ATCC 90028 assessed as growth inhibition after 24 hrs by microbroth dilution method; type: functional; conditions: ATCC 90028, 24 h
[5] = Cytotoxicity against mouse NIH/3T3 cells assessed as dead cells at 12.5 ug/mL after 72 hrs by Alamar Blue assay relative to control; type: cell-based; conditions: nih3t3, 72 h
Candida tropicalis [6] = test: Antifungal activity against Candida tropicalis assessed as growth inhibition after 24 hrs by microbroth dilution method; type: functional
Candida parapsilosis [7] = test: Antifungal activity against Candida parapsilosis assessed as growth inhibition at 250 ug/mL after 24 hrs by hole plate diffusion method; type: functional; conditions: Lodderomyces parapsilosis, read-out: IZ
Pichia kudriavzevii [8] = test: Antifungal activity against Candida krusei assessed as growth inhibition after 24 hrs by microbroth dilution method; type: functional
[9] = Hemolytic activity in Swiss mouse erythrocytes at 50 ug/mL after 1 hr by spectrophotometric analysis relative to control; type: ADME, cell-based, Erythrocyte; conditions: read-out: Activity
Candida albicans [10] = test: Antifungal activity against Candida albicans assessed as growth inhibition at 250 ug/mL after 24 hrs by hole plate diffusion method; type: functional; conditions: read-out: IZ
Kluyveromyces marxianus [11] = test: Antifungal activity against Candida kefyr assessed as growth inhibition after 24 hrs by microbroth dilution method; type: functional
Candida tropicalis [12] = test: Antifungal activity against Candida tropicalis assessed as growth inhibition at 250 ug/mL after 24 hrs by hole plate diffusion method; type: functional; conditions: read-out: IZ
Pichia kudriavzevii [13] = test: Antifungal activity against Candida krusei assessed as growth inhibition at 250 ug/mL after 24 hrs by hole plate diffusion method; type: functional; conditions: read-out: IZ
Kluyveromyces marxianus [14] = test: Antifungal activity against Candida kefyr assessed as growth inhibition at 250 ug/mL after 24 hrs by hole plate diffusion method; type: functional; conditions: read-out: IZ
Candida dubliniensis [15] = test: Antifungal activity against Candida dubliniensis assessed as growth inhibition at 250 ug/mL after 24 hrs by hole plate diffusion method; type: functional; conditions: read-out: IZ

Structure (SMILES)	MIC (Candida dubliniensis [1]) [µM]	MIC (Candida parapsilosis [2]) [µM]	MIC (Candida albicans [3]) [µM]	MIC (Candida albicans [4]) [µM]	mortality [5] [%]	MIC (Candida tropicalis [6]) [µM]	zone of inhibition at 250 µg/mL (Candida parapsilosis [7]) [mm]	MIC (Pichia kudriavzevii [8]) [µM]	hemolysis at 1 h, 50 ug/mL [9] [%]	zone of inhibition at 250 µg/mL (Candida albicans [10]) [mm]	MIC (Kluyveromyces marxianus [11]) [µM]	zone of inhibition at 250 µg/mL (Candida tropicalis [12]) [mm]	zone of inhibition at 250 µg/mL (Pichia kudriavzevii [13]) [mm]	zone of inhibition at 250 µg/mL (Kluyveromyces marxianus [14]) [mm]	zone of inhibition at 250 µg/mL (Candida dubliniensis [15]) [mm]
Cc1ccc(C2CC3=C(O2)C(=O)c2ccccc2C3=O)cc1 (stereo not drawn)	43.1 (≈ 12.5 µg/mL)	43.1 (≈ 12.5 µg/mL)	43.1 (≈ 12.5 µg/mL)	86.2 (≈ 25 µg/mL)	0	43.1 (≈ 12.5 µg/mL)	0	86.2 (≈ 25 µg/mL)	-0.786	10.4	86.2 (≈ 25 µg/mL)	7.28	4.94	4.27	2.75
O=C1C2=C(OC(c3ccc(Br)cc3)C2)C(=O)c2ccccc21 (stereo not drawn)	70.4 (≈ 25 µg/mL)	35.2 (≈ 12.5 µg/mL)	35.2 (≈ 12.5 µg/mL)	70.4 (≈ 25 µg/mL)	0	35.2 (≈ 12.5 µg/mL)	9.18	70.4 (≈ 25 µg/mL)	2.53	1.39	70.4 (≈ 25 µg/mL)	0	7.5	0	0.49
Cc1ccc(C2CC3=C(O2)c2ccccc2C(=O)C3=O)cc1 (stereo not drawn)	2.69 (≈ 0.781 µg/mL)	10.8 (≈ 3.13 µg/mL)	10.8 (≈ 3.13 µg/mL)	10.8 (≈ 3.13 µg/mL)	0	43.1 (≈ 12.5 µg/mL)	0	5.39 (≈ 1.56 µg/mL)	5.28	0.39	5.39 (≈ 1.56 µg/mL)	2.26	5.77	0	6.44
O=C1C(=O)c2ccccc2C2=C1CC(c1ccc(F)cc1)O2 (stereo not drawn)	42.5 (≈ 12.5 µg/mL)	42.5 (≈ 12.5 µg/mL)	42.5 (≈ 12.5 µg/mL)	85 (≈ 25 µg/mL)	0	42.5 (≈ 12.5 µg/mL)	8.12	10.6 (≈ 3.12 µg/mL)	-0.202	1.37	42.5 (≈ 12.5 µg/mL)	8.59	9.8	8.96	1.7
O=C1C(=O)c2ccccc2C2=C1CC(c1ccc(Cl)cc1)O2 (stereo not drawn)	40.2 (≈ 12.5 µg/mL)	10.1 (≈ 3.12 µg/mL)	40.2 (≈ 12.5 µg/mL)	80.5 (≈ 25 µg/mL)	0	20.1 (≈ 6.25 µg/mL)	6.11	40.2 (≈ 12.5 µg/mL)	-1.51	1.5	5.02 (≈ 1.56 µg/mL)	2.21	5.65	1.96	9.01
O=C1C(=O)c2ccccc2C2=C1CC(c1ccccc1)O2 (stereo not drawn)	5.65 (≈ 1.56 µg/mL)	22.6 (≈ 6.25 µg/mL)	45.2 (≈ 12.5 µg/mL)	90.5 (≈ 25 µg/mL)	0	11.3 (≈ 3.12 µg/mL)	7.22	2.82 (≈ 0.779 µg/mL)	1.98	7.37	5.65 (≈ 1.56 µg/mL)	5.7	12	10.8	11.9
O=C1C2=C(OC(c3ccccc3)C2)C(=O)c2ccccc21 (stereo not drawn)	14.9 (≈ 4.12 µg/mL)	90.5 (≈ 25 µg/mL)	11.3 (≈ 3.12 µg/mL)	90.5 (≈ 25 µg/mL)	0	45.2 (≈ 12.5 µg/mL)	6.88	90.5 (≈ 25 µg/mL)	-1.44	17	90.5 (≈ 25 µg/mL)	7.7	8.29	1.96	4.3
OC(Cn1cncn1)(Cn1cncn1)c1ccc(F)cc1F [FLUCONAZOLE]	1.63 (≈ 0.499 µg/mL)	1.63 (≈ 0.499 µg/mL)	1.63 (≈ 0.499 µg/mL)	1.63 (≈ 0.499 µg/mL)		313 (≈ 96 µg/mL)	10.4	104 (≈ 32 µg/mL)		13	1.63 (≈ 0.499 µg/mL)	15	9.64	21.2	12.8
CC1(c2ccccc2)CC2=C(O1)c1ccccc1C(=O)C2=O (stereo not drawn)	5.65 (≈ 1.64 µg/mL)	45.2 (≈ 13.1 µg/mL)	45.2 (≈ 13.1 µg/mL)	45.2 (≈ 13.1 µg/mL)	0	11.3 (≈ 3.28 µg/mL)	7.34	22.6 (≈ 6.57 µg/mL)	-1.2	8.41	11.3 (≈ 3.28 µg/mL)	3.48	8.52	10.1	12.9
